Assays:
human beta2-adrenoceptor = target: T1, human beta2-adrenoceptor (Homo sapiens, UniProt P07550); experiment: 3H-CGP 12177 whole cell binding, beta2; settings: 3H-CGP12177 whole-cell binding, CHO cells expressing human beta2-adrenoceptor, given as negative Log KD; for Kd: read-out: Beta 2 Log KD (converted)
T1 construct: expressed in transfected cells; host or cells: CHO cells
Experimental: (§1) Selectivity of ligands for the three beta-adrenoceptors was assessed by whole-cell binding studies using ^3H-CGP12177 in CHO cells expressing the human beta1, beta2 or beta3-adrenoceptors respectively essentially as described by Baker (2005; Br. J Pharmacol: 144, 317-22). Values shown are KD values determined as described by Baker (2005). KD represents the concentration of compound required to occupy 50% of the receptors in cells or tissues.
(§2) The selectivity of a ligand is given by the ratio of beta-1 to beta-2 KD. Accordingly a difference of one in the logarithmic values thereof represents a 10-fold selectivity, a difference of 2 represents 100-fold selectivity and a difference of 3 represents 1000-fold selectivity etc.

human beta1-adrenoceptor = target: T2, human beta1-adrenoceptor (Homo sapiens, UniProt P08588); experiment: 3H-CGP 12177 whole cell binding, beta1; settings: 3H-CGP12177 whole-cell binding, CHO cells expressing human beta1-adrenoceptor, given as negative Log KD; for Kd: read-out: Beta 1 Log KD (converted)
T2 construct: expressed in transfected cells; host or cells: CHO cells
Experimental: as §1, §2

T2 sequence (P08588 whole entry): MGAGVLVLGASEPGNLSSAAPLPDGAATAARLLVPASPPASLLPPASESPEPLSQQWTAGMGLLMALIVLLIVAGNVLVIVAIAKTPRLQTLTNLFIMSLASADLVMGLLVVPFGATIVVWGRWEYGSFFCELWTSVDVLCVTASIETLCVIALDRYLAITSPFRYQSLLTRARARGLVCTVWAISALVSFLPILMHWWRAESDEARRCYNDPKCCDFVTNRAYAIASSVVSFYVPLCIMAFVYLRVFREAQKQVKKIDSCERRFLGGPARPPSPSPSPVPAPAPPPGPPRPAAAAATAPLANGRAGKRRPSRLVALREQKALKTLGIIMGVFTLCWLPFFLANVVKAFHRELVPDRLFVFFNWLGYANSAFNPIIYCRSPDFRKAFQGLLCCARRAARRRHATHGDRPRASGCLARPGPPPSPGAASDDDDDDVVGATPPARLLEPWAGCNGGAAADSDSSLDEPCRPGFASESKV

## 1-(2-(2-Hydroxy-3-(2-methylbenzofuran-5-yloxy)propylamino)ethyl)-3-(4-hydroxyphenyl)urea [Example 610c]
Human beta2-adrenoceptor
  Beta 2 Log KD: −5.16
Human beta1-adrenoceptor
  Beta 1 Log KD: −6.55

## 1-(2-(3-(3-(Ethoxymethyl)-2,3-dihydrobenzo[b][1,4]dioxin-6-yloxy)-2-hydroxypropylamino)ethyl)-3-(4-hydroxyphenyl)urea and 1-(2-(3-(2-(ethoxymethyl)-2,3-dihydrobenzo[b][1,4]dioxin-6-yloxyl-2-hydroxypropylamino)ethyl)-3-(4-hydroxyphenyl)urea [Example 76]
Human beta2-adrenoceptor
  Beta 2 Log KD: −4.69
Human beta1-adrenoceptor
  Beta 1 Log KD: −6.84

## O=C(NCCNCC(O)C1COc2ccccc2O1)Nc1ccc(O)cc1 (mixture of isomers) [Example 46b, 1-(2-(2-(2,3-dihydrobenzo[b][1,4]dioxin-2-yl)-2-hydroxyethylamino)ethyl)-3-(4-hydroxyphenyl)urea]
Human beta2-adrenoceptor
  Kd: 0.0977 µM
Human beta1-adrenoceptor
  Kd: 0.011 µM
other
  melting point: 141 °C

## O=C(NCCNCC(O)COc1ccc2c(c1)OC(c1ccccc1)CC2=O)Nc1cccc(Cl)c1 (stereo not shown) [Example 4a, 1-(3-chlorophenyl)-3-(2-(2-hydroxy-3-(4-oxo-2-phenylchroman-7-yloxy)propylamino)ethyl)urea]
Human beta2-adrenoceptor
  Kd: 3.09 µM
Human beta1-adrenoceptor
  Kd: 0.407 µM

## O=C(NCCNCC(O)COc1ccc2oc(-c3ccccc3)cc(=O)c2c1)Nc1cccc(Cl)c1 (stereo not shown) [Example 4b, 1-(3-chlorophenyl)-3-(2-(2-hydroxy-3-(4-oxo-2-phenyl-4H-chromen-6-yloxy)propylamino)ethyl)urea]
Human beta2-adrenoceptor
  Kd: 4.47 µM
Human beta1-adrenoceptor
  Kd: 0.617 µM
other
  melting point: 165 °C

## O=C(NCCNCC(O)COc1ccc2oc(=O)ccc2c1)Nc1cccc(Cl)c1 (stereo not shown) [Example 4c, 1-(3-chlorophenyl)-3-(2-(2-hydroxy-3-(2-oxo-2H-chromen-6-yloxy)propylamino)ethyl)urea]
Human beta2-adrenoceptor
  Kd: 9.33 µM
Human beta1-adrenoceptor
  Kd: 0.355 µM
other
  melting point: 160 °C

## Cc1cc(=O)oc2ccc(OCC(O)CNCCNC(=O)Nc3cccc(Cl)c3)cc12 (stereo not shown) [Example 4d, 1-(3-chlorophenyl)-3-(2-(2-hydroxy-3-(4-methyl-2-oxo-2H-chromen-6-yloxy)propylamino)ethyl)urea]
Human beta2-adrenoceptor
  Kd: 4.47 µM
Human beta1-adrenoceptor
  Kd: 0.389 µM
other
  melting point: 158 °C

## CCOC(=O)c1cc2cc(OCC(O)CNCCNC(=O)Nc3cccc(Cl)c3)ccc2o1 (stereo not shown) [Example 24a, Ethyl-5-(3-(2-(3-(3-Chlorophenyl)ureido)ethylamino)-2-hydropropoxy)benzofuran-2-carboxylate]
Human beta2-adrenoceptor
  Beta 2 Log KD: −5.27
Human beta1-adrenoceptor
  Beta 1 Log KD: −6.50

## NC(=O)c1cc2cc(OCC(O)CNCCNC(=O)Nc3cccc(Cl)c3)ccc2o1 (stereo not shown) [Example 24b, 5-(3-(2-(3-(3-chlorophenyl)ureido)ethylamino)-2-hydropropoxy)benzofuran-2-carboxamide]
Human beta2-adrenoceptor
  Kd: 6.46 µM
Human beta1-adrenoceptor
  Kd: 0.501 µM

## O=C(NCCNCC(O)C1COc2ccccc2O1)Nc1cccc(Cl)c1 (stereo not shown) [Example 46a, 1-(3-chlorophenyl)-3-(2-(2-(2,3-dihydrobenzo[b][1,4]dioxin-2-yl)-2-hydroxyethylamino)ethyl)urea]
Human beta2-adrenoceptor
  Kd: 0.0575 µM
Human beta1-adrenoceptor
  Kd: 0.00398 µM
other
  melting point: 141 °C

## O=C(NCCNCC(O)C1Cc2cc(OCCOC3CCCC3)ccc2O1)Nc1ccc(O)cc1 (stereo not shown) [Example 63a, 1-(2-(2-(5-(2-(cyclopentyloxy)ethoxy)-2,3-dihydrobenzofuran-2-yl)-2-hydroxyethylamino)ethyl)-3-(4-hydroxyphenyl)urea]
Human beta2-adrenoceptor
  Kd: 26.9 µM
Human beta1-adrenoceptor
  Kd: 0.537 µM

## O=C(NCCNCC(O)c1cc2cc(OCCOC3CCCC3)ccc2o1)Nc1ccc(O)cc1 (stereo not shown) [Example 63b, 1-(2-(2-(5-(2-(cyclopentyloxy)ethoxy)benzofuran-2-yl)-2-hydroxyethylamino)ethyl)-3-(4-hydroxyphenyl)urea]
Human beta2-adrenoceptor
  Kd: 44.7 µM
Human beta1-adrenoceptor
  Kd: 0.155 µM

## Cc1ccc2cc(C(O)CNCCNC(=O)Nc3ccc(O)cc3)oc2c1 (stereo not shown) [Example 63c]
Human beta2-adrenoceptor
  Kd: 0.525 µM
Human beta1-adrenoceptor
  Kd: 0.0468 µM
other
  melting point: 152.5 °C

## COc1ccc2oc(C(O)CNCCNC(=O)Nc3ccc(O)cc3)cc2c1 (stereo not shown) [Example 63d]
Human beta2-adrenoceptor
  Kd: 3.16 µM
Human beta1-adrenoceptor
  Kd: 0.224 µM
other
  melting point: 151 °C

## CCOCc1cc2cc(OCC(O)CNCCNC(=O)Nc3ccc(O)cc3)ccc2o1 (stereo not shown) [Example 610a, 1-(2-(3-(2-(Ethoxymethyl)benzofuran-5-yloxy)-2-hydroxypropylamino)ethyl)-3-(4-hydroxyphenyl)urea]
Human beta2-adrenoceptor
  Kd: 10.2 µM
Human beta1-adrenoceptor
  Kd: 0.257 µM
other
  melting point: 131.5 °C

## CCOCC1Cc2cc(OCC(O)CNCCNC(=O)Nc3ccc(O)cc3)ccc2O1 (stereo not shown) [Example 610b]
Human beta2-adrenoceptor
  Beta 2 Log KD: −4.79
Human beta1-adrenoceptor
  Beta 1 Log KD: −6.78

Source: US20150051270A1, “Novel Cyclic Phenoxy Compounds and Improved Treatments for Cardiac and Cardiovascular Disease” (University of Nottingham, priority 2012, published 2015)
